Experimental findings from patent publication US20130143739A1, “HERBICIDAL COMPOSITION CONTAINING 4-amino-3-chloro-6-(4-chloro-2-fluoro-3-methoxyphenyl) pyridine-2-carboxylic acid or derivative thereof AND FLUROXYPYR or derivatives thereof” (DOW AGROSCIENCES LLC, priority 2011, published 2013) are described below.

Where “and” joins values, the source holds several entries; their conditions need not be identical. Equal values may be shown once.

Holding throughout (format): in vivo
The subject of assay [1] is MEOPA (Melochia parviflora). Nature of the assay: Postemergence field trial, weed control in range and pasture. The settings on record: for Obs, observed percent weed control: 14 DAA, Table 1; for % Visual Injury, Obs: 63 DAA. Here is the method: (§1) Evaluation of Postemergence Herbicidal Activity of Mixtures in Cereal crops and Range and Pasture.
(§2) Field trials were conducted in cereal crops (winter wheat (TRZAW), spring wheat (TRZAS) and spring barley (HORVU) in Canada, France, Germany, Spain, Denmark, United Kingdom and Belgium, and pasture trials were conducted in Colombia using standard herbicide small plot research methodology. Plot size was typical for small plot research, varying from 1.4 to 2 meters (m) wide by 3 to 10 m long. There were 2-4 replicates per treatment. The soil type ranged from coarse, to medium or heavy in terms of soil texture. Cereal crops were planted, grown and maintained as commercial production fields. Perennial pastures were natural plant and weed infestations as per normal local cultural practices. The cereal and pasture crops were grown using normal cultural practices for fertilization and maintenance to ensure good growth of the crop/pastures and the weeds.
(§3) Treatments were applied by backpack or bicycle sprayers using either compressed air, nitrogen, or carbon dioxide (CO2), at spray pressures from 200 to 300 Kpa. Spray tips were typically Flat Fan Teejet nozzles, such as TJ8003. Spray volumes varied from 200 to 400 liters per hectare (L/ha). MEOPA plant size at application varied from 70 to 80 centimeters (cm) tall active growth at flowering stage. All cereal weeds tested varied from 2 leaf to 8 leaf and often branched or tittered.
(§4) For each treatment, the appropriate formulated product amount to treat the plot area, to achieve the desired application rate, based on unit area of application (hectare), was calculated, measured, and mixed in water prior to applying with the backpack or bicycle sprayer. Treatments were rated as compared to the untreated control plots. The commercial fluroxypyr formulations used were Starane® Ultra (333 gr ae/liter) or Starane® 2 (200 gr ae/liter). Compound I was formulated as a 20% weight acid equivalent wettable granule (WG) or as a 7.5 gr ae/liter EC of the corresponding methyl ester. All Compound (I) treatments were tank mixed with an adjuvant. Compound (I) treatments in the cereal trials contained the safener cloquintocet-mexyl.
(§5) Colby's equation was used to determine the herbicidal effects expected from the mixtures (Colby, S. R. Calculation of the synergistic and antagonistic response of herbicide combinations. Weeds 1967, 15, 20-22.).
(§6) The following equation was used to calculate the expected activity of mixtures containing two active ingredients, A and B:
(§7) A=observed efficacy of active ingredient A at the same concentration as used in the mixture.
(§8) B=observed efficacy of active ingredient B at the same concentration as used in the mixture.

The subject of assay [2] is CASOB (Cassia obtusifolia). The description is as above. The settings on record: 29-42 DAA. The method, then:
as §1, §2, §3, §4, §5, §6, §7, §8

Assay [3] deals with CHEAL (Chenopodium album). In words: Postemergence field trial, weed control in cereal crops. The note with it: 14 DAA. The method, then: as §1, §2, §3, §4, §5, §6, §7, §8
The subject of assay [4] is CIRAR (Cirsium arvense). The description is as above. The note with it: 14 DAA. The method, then:
as §1, §2, §3, §4, §5, §6, §7, §8

Assay [5] relates to STAAN (Stachys annua). The description is as above. The settings on record: 14 DAA. Here is the method: as §1, §2, §3, §4, §5, §6, §7, §8
Assay [6] relates to VERHE (Veronica hederifolia). Described as above. The settings on record: 49 DAA. Here is the method: as §1, §2, §3, §4, §5, §6, §7, §8
Assay [7] concerns POLAV (Polygonum aviculare). Described as above. The settings on record: 13-27 DAA. The method, then:
as §1, §2, §3, §4, §5, §6, §7, §8

The subject of assay [8] is LAMPU (Lamium purpureum). Described as above. The note with it: 28 DAA. The method, then:
as §1, §2, §3, §4, §5, §6, §7, §8

Assay [9] deals with PAPRH (Papaver rhoeas). Described as above. The settings on record: 28 DAA. Here is the method: as §1, §2, §3, §4, §5, §6, §7, §8
The test system of assay [10] is VIOAR (Viola arvensis). The description is as above. The note with it: 14 DAA. Here is the method:
as §1, §2, §3, §4, §5, §6, §7, §8

In assay [11] the test system is VEROF (Veronica officinalis). Described as above. The note with it: 28 DAA. The method, then: as §1, §2, §3, §4, §5, §6, §7, §8
Assay [12] deals with SINAR (Sinapis arvensis). Described as above. The settings on record: 58 DAA. The method, then:
as §1, §2, §3, §4, §5, §6, §7, §8

For assay [13], the system named is AMARE (Amaranthus retroflexus). The description is as above. The note with it: 56 DAA. The method, then: as §1, §2, §3, §4, §5, §6, §7, §8
Assay [14] has as its system MATCH (Matricaria chamomilla). The description is as above. Here is the method: as §1, §2, §3, §4, §5, §6, §7, §8
The subject of assay [15] is STEME (Stellaria media). Described as above. Here is the method:
as §1, §2, §3, §4, §5, §6, §7, §8

Where [16] appears, read: fluroxypyr MHE 120 g ae/ha alone.
Setting [17] is: fluroxypyr MHE 150 g ae/ha alone.
The mark [18] stands for this setting: fluroxypyr MHE 77 g ae/ha alone.
[19] abbreviates: fluroxypyr MHE 140 g ae/ha alone.

Turning to `CCCCCCC(C)OC(=O)COc1nc(F)c(Cl)c(N)c1Cl` (centres unmarked) [Fluroxypyr (MHE), Fluroxypyr Methylheptyl Ester, reference compound], the “Obs, observed percent weed control” value in assay [1] (setting [16]) is recorded as 3.5%. Further, the “% Visual Injury, Obs” value in assay [1] (setting [16]) was 3% and 8%; in [2] (setting [16]) it was 18%; in assay [3] (setting [17]), 10%; in [4] (setting [17]), 10%; in [5] (setting [17]), 30%; in assay [6] (fluroxypyr MHE 110 g ae/ha alone), 42%. Further, the “% Visual Injury, Obs” value in [7] (setting [18]) is 25%; in [7] (fluroxypyr MHE 80 g ae/ha alone), 61%; in assay [8] (fluroxypyr MHE 50 g ae/ha alone) it was 4%; in assay [9] (setting [19]), 5%; in assay [10] (setting [19]), 50%; in assay [11] (setting [19]), 0%. Further, the “% Visual Injury, Obs” value is reported as 13% in [12] (setting [19]); 20% in [13] (setting [18]); 47% in [14] (27 DAA, fluroxypyr MHE 200 g ae/ha alone); 0% in assay [14] (54 DAA, fluroxypyr MHE 150 g ae/ha alone); 27% in assay [15] (28 DAA, fluroxypyr MHE 200 g ae/ha alone); 81% in [15] (30 DAA, fluroxypyr MHE 80 g ae/ha alone). The “% Visual Injury, Obs” value stood at 67% in [15] (76 DAA, fluroxypyr MHE 110 g ae/ha alone, Table 5) and 77% in [15] (76 DAA, fluroxypyr MHE 140 g ae/ha alone, Table 3).

With `COC(=O)c1nc(-c2ccc(Cl)c(OC)c2F)cc(N)c1Cl` [XDE-729 (Methyl Ester), halauxifen-methyl], the “Obs, observed percent weed control” value came out at 48.5% in assay [1] (XDE-729 methyl ester 17.5 g ae/ha alone) and 63.1% in [1] (XDE-729 methyl ester 35 g ae/ha alone). Also, the “% Visual Injury, Obs” value worked out at 25% in assay [1] (XDE-729 Me 18 g ae/ha alone); 42% in assay [1] (XDE-729 Me 35 g ae/ha alone); 6% in assay [2] (XDE-729 Me 18 g ae/ha alone); 16% in assay [2] (XDE-729 Me 35 g ae/ha alone); 23% in assay [6] (XDE-729 Me 6 g ae/ha alone); 0% in assay [7] (XDE-729 Me 2 g ae/ha alone). For the same molecule, the “% Visual Injury, Obs” value in assay [7] (XDE-729 Me 5 g ae/ha alone) turned out to be 53%; in assay [8] (XDE-729 Me 2 g ae/ha alone) it was 73%; in assay [9] (XDE-729 Me 6 g ae/ha alone), 54%; in [10] (XDE-729 Me 6 g ae/ha alone), 10%; in assay [11] (XDE-729 Me 6 g ae/ha alone), 0%; in assay [12] (XDE-729 Me 6 g ae/ha alone), 0%. The “% Visual Injury, Obs” value is recorded as 50% in [13] (XDE-729 Me 5 g ae/ha alone); 0% in assay [14] (54 DAA, XDE-729 Me 6 g ae/ha alone); 58% in [15] (30 DAA, XDE-729 Me 2 g ae/ha alone); 19% in assay [15] (76 DAA, XDE-729 Me 4.5 g ae/ha alone, Table 3); 22% in assay [15] (76 DAA, XDE-729 Me 4.5 g ae/ha alone, Table 5); 29% in assay [15] (76 DAA, XDE-729 Me 6 g ae/ha alone, Table 3). Also, the “% Visual Injury, Obs” value in [15] (76 DAA, XDE-729 Me 6 g ae/ha alone, Table 5) is on record as 38%.

Turning to `COc1c(Cl)ccc(-c2cc(N)c(Cl)c(C(=O)O)n2)c1F` [XDE-729 (TEA)], the “% Visual Injury, Obs” value turned out to be 83% in assay [3] (XDE-729 TEA 8.8 g ae/ha alone); 64% in assay [4] (XDE-729 TEA 8.8 g ae/ha alone); 64% in assay [5] (XDE-729 TEA 8.8 g ae/ha alone); 8% in assay [14] (27 DAA, XDE-729 TEA 35 g ae/ha alone); 10% in assay [15] (28 DAA, XDE-729 TEA 35 g ae/ha alone).
